In ChEMBL document CHEMBL1909046, “DrugMatrix in vitro pharmacology data”:

Legend:
[1] = biological target: T1, Type-2 angiotensin II receptor (Homo sapiens, UniProt P50052); format: cell-based; settings: cho-k1; further: in other assays of this panel Not Active means under 50% inhibition at 10 µM
T1 sequence (P50052 whole entry): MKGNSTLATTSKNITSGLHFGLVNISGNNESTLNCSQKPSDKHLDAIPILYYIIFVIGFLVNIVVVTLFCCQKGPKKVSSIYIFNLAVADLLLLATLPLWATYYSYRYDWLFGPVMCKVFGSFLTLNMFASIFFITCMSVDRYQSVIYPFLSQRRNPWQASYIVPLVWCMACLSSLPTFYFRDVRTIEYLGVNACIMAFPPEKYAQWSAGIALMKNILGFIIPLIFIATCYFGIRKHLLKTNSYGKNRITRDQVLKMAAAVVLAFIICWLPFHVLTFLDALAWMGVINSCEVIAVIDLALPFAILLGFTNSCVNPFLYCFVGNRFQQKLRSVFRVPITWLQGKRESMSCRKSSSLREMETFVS

[2] = biological target: 5-hydroxytryptamine receptor 4 (Cavia porcellus, UniProt O70528); format: cell membranes, Dunkin-Hartley, Striatum, Membrane; further: in other assays of this panel Not Active means under 50% inhibition at 10 µM
Sequence of 5-hydroxytryptamine receptor 4 (O70528 whole entry): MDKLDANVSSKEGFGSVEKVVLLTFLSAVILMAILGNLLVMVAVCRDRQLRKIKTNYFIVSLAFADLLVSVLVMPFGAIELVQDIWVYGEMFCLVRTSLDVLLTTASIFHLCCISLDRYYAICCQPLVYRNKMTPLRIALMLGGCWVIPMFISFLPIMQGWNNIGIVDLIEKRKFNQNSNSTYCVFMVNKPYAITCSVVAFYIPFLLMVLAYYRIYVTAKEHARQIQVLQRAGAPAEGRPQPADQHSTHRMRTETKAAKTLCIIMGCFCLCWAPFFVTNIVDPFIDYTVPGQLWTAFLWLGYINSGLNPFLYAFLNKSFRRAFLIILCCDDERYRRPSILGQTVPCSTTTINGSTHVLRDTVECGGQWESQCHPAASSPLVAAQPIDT

[3] = DRUGMATRIX: Glutamate, AMPA radioligand binding (ligand: [3H] AMPA); format: cell membranes, Rattus norvegicus, Wistar, Cerebral cortex, Membrane; settings: Not Active = under 50% inhibition at 10 µM
Histamine H2 receptor = Histamine H2 receptor (Homo sapiens, UniProt P25021); format: cell membranes, CHO-K1, Membrane; settings: cho-k1; further: in other assays of this panel Not Active means under 50% inhibition at 10 µM
Sequence of Histamine H2 receptor (P25021 whole entry): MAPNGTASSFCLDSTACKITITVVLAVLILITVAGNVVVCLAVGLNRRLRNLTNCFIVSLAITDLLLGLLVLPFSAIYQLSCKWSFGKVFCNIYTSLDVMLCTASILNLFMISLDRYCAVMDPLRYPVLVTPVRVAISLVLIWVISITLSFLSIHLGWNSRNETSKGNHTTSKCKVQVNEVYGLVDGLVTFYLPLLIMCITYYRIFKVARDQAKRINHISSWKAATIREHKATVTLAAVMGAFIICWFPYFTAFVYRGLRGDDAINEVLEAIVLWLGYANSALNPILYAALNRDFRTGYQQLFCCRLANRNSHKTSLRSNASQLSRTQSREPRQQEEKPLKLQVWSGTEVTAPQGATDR

[4] = biological target: T2, Angiotensin-converting enzyme (Oryctolagus cuniculus, UniProt P12822); format: tissue-based, Lung;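 further: enzymatic inhibition of angiotensin-converting enzyme measured with FAPGG as the substrate; in other assays of this panel Not Active means under 50% inhibition at 10 µM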
T2 sequence (P12822 whole entry): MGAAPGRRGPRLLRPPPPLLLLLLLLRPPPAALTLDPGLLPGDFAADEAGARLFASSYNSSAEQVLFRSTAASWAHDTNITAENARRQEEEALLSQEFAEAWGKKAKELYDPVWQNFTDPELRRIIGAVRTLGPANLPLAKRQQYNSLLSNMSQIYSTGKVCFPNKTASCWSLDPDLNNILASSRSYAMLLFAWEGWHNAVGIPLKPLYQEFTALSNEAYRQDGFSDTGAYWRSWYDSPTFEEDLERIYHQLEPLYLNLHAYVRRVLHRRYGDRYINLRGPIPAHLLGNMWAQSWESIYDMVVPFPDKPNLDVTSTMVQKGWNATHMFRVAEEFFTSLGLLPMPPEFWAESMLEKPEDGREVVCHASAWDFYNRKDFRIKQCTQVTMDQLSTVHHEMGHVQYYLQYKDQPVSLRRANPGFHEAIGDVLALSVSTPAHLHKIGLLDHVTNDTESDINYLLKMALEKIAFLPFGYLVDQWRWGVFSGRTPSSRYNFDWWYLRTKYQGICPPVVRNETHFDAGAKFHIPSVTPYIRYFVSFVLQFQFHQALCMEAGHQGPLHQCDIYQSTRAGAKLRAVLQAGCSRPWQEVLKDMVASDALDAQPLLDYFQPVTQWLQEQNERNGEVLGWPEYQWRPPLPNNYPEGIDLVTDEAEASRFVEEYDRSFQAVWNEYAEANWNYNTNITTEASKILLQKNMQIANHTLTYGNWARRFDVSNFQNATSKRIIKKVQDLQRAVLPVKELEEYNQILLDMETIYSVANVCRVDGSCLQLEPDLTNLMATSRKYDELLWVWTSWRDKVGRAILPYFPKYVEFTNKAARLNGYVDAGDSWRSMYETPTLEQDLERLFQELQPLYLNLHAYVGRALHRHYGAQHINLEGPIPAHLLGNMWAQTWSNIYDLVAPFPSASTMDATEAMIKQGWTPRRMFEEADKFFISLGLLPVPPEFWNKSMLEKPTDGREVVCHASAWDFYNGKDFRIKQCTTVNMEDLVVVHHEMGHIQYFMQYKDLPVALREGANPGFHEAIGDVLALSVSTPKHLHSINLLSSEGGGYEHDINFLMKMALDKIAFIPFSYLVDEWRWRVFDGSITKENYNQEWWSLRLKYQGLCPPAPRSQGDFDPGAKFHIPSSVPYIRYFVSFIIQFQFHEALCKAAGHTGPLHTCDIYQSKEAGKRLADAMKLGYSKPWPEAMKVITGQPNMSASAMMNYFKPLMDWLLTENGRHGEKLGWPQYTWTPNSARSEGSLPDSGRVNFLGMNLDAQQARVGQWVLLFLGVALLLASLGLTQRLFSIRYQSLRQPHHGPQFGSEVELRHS

Adenosine receptor A1 = biological target: T3, Adenosine receptor A1 (Homo sapiens, UniProt P30542); format: cell membranes, Membrane; settings: cho
T3 sequence (P30542 whole entry): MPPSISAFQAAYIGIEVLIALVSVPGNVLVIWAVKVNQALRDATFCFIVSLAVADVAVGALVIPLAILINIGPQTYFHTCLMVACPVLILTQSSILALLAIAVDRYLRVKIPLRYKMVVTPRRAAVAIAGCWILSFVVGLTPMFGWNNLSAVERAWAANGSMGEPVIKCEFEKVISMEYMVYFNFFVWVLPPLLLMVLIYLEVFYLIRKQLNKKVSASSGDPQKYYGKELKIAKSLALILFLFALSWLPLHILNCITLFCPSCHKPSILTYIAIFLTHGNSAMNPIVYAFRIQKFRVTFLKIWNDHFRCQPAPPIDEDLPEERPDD

Cytochrome P450 2A6 = biological target: T4, Cytochrome P450 2A6 (Homo sapiens, UniProt P11509); settings: bti-tn-5b1-4; further: in other assays of this panel Not Active means under 50% inhibition at 10 µM
T4 sequence (P11509 whole entry): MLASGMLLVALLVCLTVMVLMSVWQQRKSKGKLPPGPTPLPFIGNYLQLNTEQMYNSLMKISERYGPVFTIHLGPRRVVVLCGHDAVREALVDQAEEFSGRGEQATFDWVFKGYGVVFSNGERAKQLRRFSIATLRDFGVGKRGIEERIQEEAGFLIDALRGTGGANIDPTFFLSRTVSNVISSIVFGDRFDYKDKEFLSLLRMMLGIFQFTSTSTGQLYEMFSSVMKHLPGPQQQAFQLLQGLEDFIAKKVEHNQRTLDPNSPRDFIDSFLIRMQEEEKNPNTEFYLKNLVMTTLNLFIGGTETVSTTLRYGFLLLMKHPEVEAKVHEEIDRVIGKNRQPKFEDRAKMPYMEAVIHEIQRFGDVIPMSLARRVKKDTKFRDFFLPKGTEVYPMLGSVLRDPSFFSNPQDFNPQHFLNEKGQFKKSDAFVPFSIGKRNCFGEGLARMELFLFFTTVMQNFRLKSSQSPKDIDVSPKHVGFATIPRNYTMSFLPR

[5] = biological target: Voltage-gated inwardly rectifying potassium channel KCNH2 (Homo sapiens, UniProt Q12809); settings: hek293; further: in other assays of this panel Not Active means under 50% inhibition at 10 µM
Sequence of Voltage-gated inwardly rectifying potassium channel KCNH2 (Q12809 whole entry): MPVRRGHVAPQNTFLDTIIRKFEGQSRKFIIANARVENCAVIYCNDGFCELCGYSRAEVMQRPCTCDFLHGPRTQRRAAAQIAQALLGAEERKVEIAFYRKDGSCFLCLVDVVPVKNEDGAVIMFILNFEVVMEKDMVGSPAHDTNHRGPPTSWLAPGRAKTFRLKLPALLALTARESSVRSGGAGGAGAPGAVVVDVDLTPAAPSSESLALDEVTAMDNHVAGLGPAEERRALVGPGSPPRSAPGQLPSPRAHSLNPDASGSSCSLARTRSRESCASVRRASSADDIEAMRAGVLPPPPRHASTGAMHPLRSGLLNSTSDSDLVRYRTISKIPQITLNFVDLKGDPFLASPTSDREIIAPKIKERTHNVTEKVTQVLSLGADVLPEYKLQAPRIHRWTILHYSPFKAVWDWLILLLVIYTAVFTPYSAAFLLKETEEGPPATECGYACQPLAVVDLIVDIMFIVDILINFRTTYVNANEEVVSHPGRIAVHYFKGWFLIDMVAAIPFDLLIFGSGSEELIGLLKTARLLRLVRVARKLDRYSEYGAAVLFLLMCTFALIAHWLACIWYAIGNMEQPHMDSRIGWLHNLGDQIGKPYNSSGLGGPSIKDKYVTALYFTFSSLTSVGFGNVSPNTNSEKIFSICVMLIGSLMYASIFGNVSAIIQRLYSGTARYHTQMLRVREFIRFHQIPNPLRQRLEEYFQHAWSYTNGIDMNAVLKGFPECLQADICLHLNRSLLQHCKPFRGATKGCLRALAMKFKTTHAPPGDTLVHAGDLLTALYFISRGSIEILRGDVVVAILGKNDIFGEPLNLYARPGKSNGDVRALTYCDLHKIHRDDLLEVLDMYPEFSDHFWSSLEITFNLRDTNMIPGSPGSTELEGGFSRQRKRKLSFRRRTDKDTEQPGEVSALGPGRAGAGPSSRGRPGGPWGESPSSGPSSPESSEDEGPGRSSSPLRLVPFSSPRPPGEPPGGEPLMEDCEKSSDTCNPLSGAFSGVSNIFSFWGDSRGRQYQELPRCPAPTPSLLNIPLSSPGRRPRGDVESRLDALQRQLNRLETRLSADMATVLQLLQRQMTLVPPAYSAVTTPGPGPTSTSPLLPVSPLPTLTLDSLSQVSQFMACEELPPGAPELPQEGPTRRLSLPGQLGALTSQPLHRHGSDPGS

CC(C)[C@H]1CC[C@H](C(=O)N[C@H](Cc2ccccc2)C(=O)O)CC1 [NATEGLINIDE]
Not Active: IC50 [1] | IC50 [2] | IC50 [3] | Ki [3] | IC50 (Histamine H2 receptor) | IC50 [4] | IC50 (Adenosine receptor A1) | IC50 (Cytochrome P450 2A6) | Ki (Cytochrome P450 2A6) | IC50 [5] | Ki [5]

CCN[C@@H]1C[C@H](N)[C@@H](O[C@H]2OC(CN)=CC[C@H]2N)[C@H](O)[C@H]1O[C@H]1OC[C@](C)(O)[C@H](NC)[C@H]1O [NETILMICIN]
Not Active: IC50 [1] | IC50 [2] | IC50 [3] | Ki [3] | IC50 (Histamine H2 receptor) | IC50 [4] | IC50 (Adenosine receptor A1) | IC50 (Cytochrome P450 2A6) | Ki (Cytochrome P450 2A6) | IC50 [5] | Ki [5]

CCOC(=O)C1=C(C)NC(C)=C(C(=O)OC)C1c1cccc([N+](=O)[O-])c1 (stereo unspecified) [NITRENDIPINE]
Not Active: IC50 [1] | IC50 [2] | IC50 [3] | Ki [3] | IC50 (Histamine H2 receptor) | IC50 [4] | IC50 (Adenosine receptor A1) | IC50 (Cytochrome P450 2A6) | Ki (Cytochrome P450 2A6) | IC50 [5] | Ki [5]

C#C[C@]1(OC(C)=O)CC[C@H]2[C@@H]3CCC4=CC(=O)CC[C@@H]4[C@H]3CC[C@@]21C [NORETHINDRONE ACETATE]
Not Active: IC50 [1] | IC50 [2] | IC50 [3] | Ki [3] | IC50 (Histamine H2 receptor) | IC50 [4] | IC50 (Adenosine receptor A1) | IC50 (Cytochrome P450 2A6) | Ki (Cytochrome P450 2A6) | IC50 [5] | Ki [5]

COc1ccc2[nH]c([S+]([O-])Cc3ncc(C)c(OC)c3C)nc2c1 (stereo unspecified) [OMEPRAZOLE]
Not Active: IC50 [1] | IC50 [2] | IC50 [3] | Ki [3] | IC50 (Histamine H2 receptor) | IC50 [4] | IC50 (Adenosine receptor A1) | IC50 (Cytochrome P450 2A6) | Ki (Cytochrome P450 2A6) | IC50 [5] | Ki [5]

Cc1nccn1CC1CCc2c(c3ccccc3n2C)C1=O (stereo unspecified) [ONDANSETRON]
Not Active: IC50 [1] | IC50 [2] | IC50 [3] | Ki [3] | IC50 (Histamine H2 receptor) | IC50 [4] | IC50 (Adenosine receptor A1) | IC50 (Cytochrome P450 2A6) | Ki (Cytochrome P450 2A6) | IC50 [5] | Ki [5]

CCCCOc1ccc(OCCCN2CCOCC2)cc1 [PRAMOXINE]
Not Active: IC50 [1] | IC50 [2] | IC50 [3] | Ki [3] | IC50 (Histamine H2 receptor) | IC50 [4] | IC50 (Adenosine receptor A1) | IC50 (Cytochrome P450 2A6) | Ki (Cytochrome P450 2A6) | IC50 [5] | Ki [5]

O=C(C1CCCCC1)N1CC(=O)N2CCc3ccccc3C2C1 (stereo unspecified) [PRAZIQUANTEL]
Not Active: IC50 [1] | IC50 [2] | IC50 [3] | Ki [3] | IC50 (Histamine H2 receptor) | IC50 [4] | IC50 (Adenosine receptor A1) | IC50 (Cytochrome P450 2A6) | Ki (Cytochrome P450 2A6) | IC50 [5] | Ki [5]

CCN(CC)CCOC(=O)c1ccc(N)cc1 [PROCAINE]
Not Active: IC50 [1] | IC50 [2] | IC50 [3] | Ki [3] | IC50 (Histamine H2 receptor) | IC50 [4] | IC50 (Adenosine receptor A1) | IC50 (Cytochrome P450 2A6) | Ki (Cytochrome P450 2A6) | IC50 [5] | Ki [5]

CCCN(CCC)C(=O)C(CCC(=O)O)NC(=O)c1ccccc1 (stereo unspecified) [PROGLUMIDE]
Not Active: IC50 [1] | IC50 [2] | IC50 [3] | Ki [3] | IC50 (Histamine H2 receptor) | IC50 [4] | IC50 (Adenosine receptor A1) | IC50 (Cytochrome P450 2A6) | Ki (Cytochrome P450 2A6) | IC50 [5] | Ki [5]

NC(=O)c1cnccn1 [PYRAZINAMIDE]
Not Active: IC50 [1] | IC50 [2] | IC50 [3] | Ki [3] | IC50 (Histamine H2 receptor) | IC50 [4] | IC50 (Adenosine receptor A1) | IC50 (Cytochrome P450 2A6) | Ki (Cytochrome P450 2A6) | IC50 [5] | Ki [5]

OC(CCN1CCCCC1)(c1ccccc1)C1CCCCC1 (stereo unspecified) [TRIHEXYPHENIDYL]
Not Active: IC50 [1] | IC50 [2] | IC50 [3] | Ki [3] | IC50 (Histamine H2 receptor) | IC50 [4] | IC50 (Adenosine receptor A1) | IC50 (Cytochrome P450 2A6) | Ki (Cytochrome P450 2A6) | IC50 [5] | Ki [5]

Cc1cc2cc3c(C)cc(=O)oc3c(C)c2o1 [TRIOXSALEN]
Not Active: IC50 [1] | IC50 [2] | IC50 [3] | Ki [3] | IC50 (Histamine H2 receptor) | IC50 [4] | IC50 (Adenosine receptor A1) | IC50 (Cytochrome P450 2A6) | Ki (Cytochrome P450 2A6) | IC50 [5] | Ki [5]

CCCC(CCC)C(=O)O [VALPROIC ACID]
Not Active: IC50 [1] | IC50 [2] | IC50 [3] | Ki [3] | IC50 (Histamine H2 receptor) | IC50 [4] | IC50 (Adenosine receptor A1) | IC50 (Cytochrome P450 2A6) | Ki (Cytochrome P450 2A6) | IC50 [5] | Ki [5]

CCC1=C[C@@H]2CN(C1)Cc1c([nH]c3ccccc13)[C@@](C(=O)OC)(c1cc3c(cc1OC)N(C)[C@H]1[C@@](O)(C(=O)OC)[C@H](OC(C)=O)[C@]4(CC)C=CCN5CC[C@]31[C@@H]54)C2 [VINORELBINE]
Not Active: IC50 [1] | IC50 [2] | IC50 [3] | Ki [3] | IC50 (Histamine H2 receptor) | IC50 [4] | IC50 (Adenosine receptor A1) | IC50 (Cytochrome P450 2A6) | Ki (Cytochrome P450 2A6) | IC50 [5] | Ki [5]

CADMIUM DICHLORIDE
Not Active: IC50 [1] | Ki [1] | IC50 [2] | Ki [2] | IC50 [3] | Ki [3] | IC50 (Histamine H2 receptor) | Ki (Histamine H2 receptor) | IC50 [4] | Ki [4] | IC50 (Adenosine receptor A1) | Ki (Adenosine receptor A1) | IC50 (Cytochrome P450 2A6) | Ki (Cytochrome P450 2A6) | IC50 [5] | Ki [5]
